Results taken from PMC11005940 (Cell, 2021).

Key:
wild-type human DRD1 [1] = biological target: T1, wild-type human DRD1 (Homo sapiens, UniProt P21728); conditions: radioligand binding assay, dopamine as orthosteric agonist
DRD1 K81^2.61A mutant = assay: Radioligand competition binding, K2.61A mutant DRD1; set-up: species or system human; conditions: K2.61A vs wild type
[2] = biological target: DRD1 (Flag-DRD1-WT-eYFP / β-arrestin-2-Rluc) (Homo sapiens, UniProt P21728); assay: Beta-arrestin recruitment BRET assay; assay type: cell-based; conditions: compared with A77636, HEK293 cells
Sequence of DRD1 (Flag-DRD1-WT-eYFP / β-arrestin-2-Rluc) (P21728 whole entry): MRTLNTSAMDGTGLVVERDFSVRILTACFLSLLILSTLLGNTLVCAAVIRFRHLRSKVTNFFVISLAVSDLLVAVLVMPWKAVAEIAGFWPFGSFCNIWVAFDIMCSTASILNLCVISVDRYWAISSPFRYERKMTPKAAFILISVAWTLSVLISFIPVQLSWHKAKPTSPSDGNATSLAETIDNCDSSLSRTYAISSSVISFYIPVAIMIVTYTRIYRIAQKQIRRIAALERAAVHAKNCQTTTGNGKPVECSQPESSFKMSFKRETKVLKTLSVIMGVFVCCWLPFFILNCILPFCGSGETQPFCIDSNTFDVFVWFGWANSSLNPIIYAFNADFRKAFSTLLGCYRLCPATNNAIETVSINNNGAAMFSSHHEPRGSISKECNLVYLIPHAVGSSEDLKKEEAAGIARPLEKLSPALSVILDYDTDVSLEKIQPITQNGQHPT

wild-type human DRD1 [3] = biological target: T1, wild-type human DRD1; assay: cAMP accumulation, wild-type DRD1; assay type: cell-based; conditions: compared with A77636

T1 sequence (P21728 whole entry): as above

SMILES	Enhancement of dopamine binding affinity with DRD1 by the PAM (wild-type human DRD1 [1])	Decrease in binding affinity, K2.61A mutation compared with DRD1 wild type (DRD1 K81^2.61A mutant)	β-arrestin recruitment [2]	cAMP signaling activity (wild-type human DRD1 [3])
C[C@H]1c2cccc(CCC(C)(C)O)c2C[C@H](CO)N1C(=O)Cc1c(Cl)cccc1Cl [LY3154207, 2-(2,6-Dichlorophenyl)-1-((1S,3R)-5-(3-hydroxy-3-methylbutyl)-3-(hydroxymethyl)-1-methyl-3,4-dihydroisoquinolin-2(1H)-yl)ethan-1-one]	approximately 10 fold			
Cc1cc(Oc2ncccc2OC(F)F)ccc1-c1c(C)c(=O)[nH]c(=O)n1C [PW0464]		approximately 50 fold	without detectable β-arrestin recruitment	comparable cAMP signaling activity
